Reference: patent publication US20210121518A1, “HER2-TARGETED PEPTIDOMIMETICS GRAFTED ONTO MULTICYCLIC PEPTIDE SCAFFOLDS AND METHODS AND USES” (Board of Supervisors for the University of Louisiana System, priority 2018, published 2021)
Several values for one entry are separate records, joined by “and”; a condition that tells them apart may be missing. Identical values can stand only once. Entries after “also recorded” stand apart in the source; their conditions may differ. Numbered stars: 1 amine (or outer) side, 2 acyl side, 3 side chain; on linkers, the order of the positions; unused ones are H or OH. Bridge positions count the residues as written; N and C are the ends. Square brackets hold non-standard residues; d marks the D form. Peptide text beside a SMILES is read from it. βAla(3R-(1-naphthyl)) = O=C(C[C@@H](N[*:1])c1cccc2ccccc12)[*:2]; βAla(3S-(1-naphthyl)) = O=C(C[C@H](N[*:1])c1cccc2ccccc12)[*:2]

How the values were obtained:
[1] = for appearance in water (turbidity): 0.5 mg in 1 mL water, compared to blank
Method: 0.5 mg of each compound was added to water in 1 mL. […] If a compound is highly soluble in water, it may not pass through intestinal barrier. Compound should be slightly lipophilic to pass through intestinal barrier.

[2] = target: HER2 protein extracellular domain (ECD) (Homo sapiens, UniProt P04626); test: SPR binding to HER2 extracellular domain; settings: SPR sensorgram
Text: Surface plasmon resonance (SPR) analysis of binding of grafted peptide with HER2 ECD protein at different concentrations. […] SPR analysis of binding of grafted peptide with HER2 ECD domain IV protein at different concentrations.
To evaluate the binding of the grafted peptide to HER2 protein ECD, surface plasmon resonance (SPR) analysis was used.

[3] = tested on: NCI-H1975 (EGFR L858R/T790M double mutation); settings: read-out: antiproliferative activity IC50
Method: (§1) X=Anapa, amino naphthyl propionic acid, specifically, 3-amino 3(1-napthyl) propionic acid. Single letter amino acid code was used for peptide sequence. Small letters refer to D amino acids and capital letters refer to L amino acids. Chirality of Anapa was indicated with R and S configuration in italics. Antiproliferative activity of peptides in cancer cell lines are given as IC50 μM. Disulfide bond between the cysteines is shown in underline.
The inventor therefor designed compounds to bind to the extracellular domain and inhibit the downstream signaling. NCI-H1975 is a cell line that harbors the EGFR L858R/T790M double mutation.

[4] = tested on: Calu-3 lung cancer cell lines that overexpresses HER2; test: Synergy with TKI (isobologram) in Calu-3; assay type: cell-based
[5] = tested on: HER2-overexpressing lung cancer Calu-3 cell lines; settings: read-out: antiproliferative activity IC50
Method: as §1

[6] = tested on: MCF-7 cell lines that do not overexpress the HER2 protein
Method: as §1

[7] = tested on: HER2 overexpressing BT-474 breast cancer cell lines; settings: read-out: antiproliferative activity IC50
Method: as §1

[8] = tested on: EGFR mutated NSCLC cell line NCI-H1975; test: Synergy with TKI (isobologram) in NCI-H1975; assay type: cell-based
[9] = tested on: phosphorylation of HER2 kinase; test: Western blot of HER2 phosphorylation in A549 cells; assay type: cell-based; settings: 1 μM, incubation 40 h
Method: Lapatinib (2 μM) was used as positive control. Incubation 40 h. *p<0.05 **P<0.01.
Lapatinib, a known inhibitor of HER2, was used as a positive control.

[10] = tested on: normal breast epithelial cell line MCF-10A; settings: for IC50: read-out: antiproliferative activity IC50, MCF-10A
Method: as §1
Design of grafted peptides: Peptidomimetics were designed to bind to HER2 protein domain IV and inhibit PPI of HER2:HER3 and EGFR:HER2.

[11] = tested on: A549 Red-FLuc NSCLC cells; test: A549 Red-FLuc lung cancer model in athymic nude mice; assay type: in vivo, mice (Foxn1-nude); settings: 6 mg/kg IV twice a week
Method: A549 cells with luciferase were injected to induce lung cancer in mice (Foxn1-nude). One week after injection of cells, mice were monitored for lung cancer development using luciferin imaging. Peptide was administered via IV twice a week after 2 weeks of cell injections. Representative images: In the control group (row 1) lung cancer tumor growth increased in 5 weeks.
FIG. 17 is a chart showing relative luminescence intensity (total photon flux/sec) plotted for 3 animals and a control.
FIG. 18A is a plot of relative luminescence intensity (total photon flux/sec) plotted for 4 animals and controls from the lung cancer study, *p<0.05, and FIG. 18B is a plot displaying bodyweight change of mice during the study.
Athymic nude mice (Foxn1-nude, 6-7 weeks old) were purchased from Harlan laboratories. Mice were acclimatized for one week in the vivarium. 4.5×10^6 A549 Red-FLuc NSCLC cells in 150 μL PBS were injected into each mouse via tail vein (IV). Total of four mice were injected with cells. Mice were monitored for 2 weeks. After 1 week, mice were injected with luciferin (200 μL in PBS, IP injection) and imaged under anesthesia using IVIS (Perkin Elmer) instrument. Bioluminescence was measured from each animal. One animal was used as a control. Peptide treatment started after 2 weeks from injection of cells and peptide was prepared in PBS and administered via i.v. with a dose of 6 mg/kg in 100 μL twice a week. Animals were imaged once a week to monitor the progression of lung cancer. Images were quantified using Living Image Software (Perkin Elmer). Bioluminescence signal for each mouse was expressed as total flux of photons/sec. Region of interest tool was used to measure the total photon flux/sec. A graph of bioluminescence for each mouse was plotted with respect to time (each week). After five weeks mice were terminated, and tumor sections and lungs were removed by surgical procedure. Tumor sections were fixed, embedded in […], and cut into 5 μm slices. […] Images were viewed under a fluorescence microscope (Olympus BX63 microscope) at 40× magnification. […]

[12] = Thermal stability by MALDI-TOF mass spectrometry; assay type: physicochemical; settings: 25° C., 50° C., 80° C., MALDI-TOF-MS
Method: FIGS. 12A-12C are three charts showing thermal stability of the disclosed H2TPFGGoCSs using mass spectrometry.
(§2) However, CD spectra of peptides provide the information about the overall average conformation of the peptide in solution. To verify that the peptide was stable even at high temperature, the samples of peptide that were heated to 80 C was analyzed by mass spectrometry. […] The CD spectra of compound 18 was also verified using mass spectrometry analysis (FIG. 22).

trypsin = test: Stability in trypsin (HPLC); assay type: in vitro ADME; settings: pH 7.4, 37° C, 24 hours
Method: The trypsin inhibition assay was performed with a modified Erlanger's method. […] Samples at different incubation times were analyzed by HPLC.

[13] = Thermal stability by CD spectroscopy; assay type: physicochemical; settings: temperature changed from 25 to 80° C. (85 C)
Method: Overall conformation of the peptide remained the same at all temperatures studied.
as §2

[14] = tested on: BT-474 cell lines that overexpress HER2; test: Synergy with TKI (isobologram) in BT-474; assay type: cell-based
[15] = Stability in human serum (in vitro, HPLC); assay type: in vitro ADME
Text: At different time points, aliquots of sample were taken and subjected to extraction of compound using cold acetonitrile. Samples were freeze dried and quantified by HPLC method. […] Nearly 60% of sample is intact peptide.

[16] = target: T1, human serum albumin (HSA) (human, UniProt P02768 25-609); test: SPR
T1 construct: also called HSA protein
T1 sequence (P02768 25-609 limits assumed): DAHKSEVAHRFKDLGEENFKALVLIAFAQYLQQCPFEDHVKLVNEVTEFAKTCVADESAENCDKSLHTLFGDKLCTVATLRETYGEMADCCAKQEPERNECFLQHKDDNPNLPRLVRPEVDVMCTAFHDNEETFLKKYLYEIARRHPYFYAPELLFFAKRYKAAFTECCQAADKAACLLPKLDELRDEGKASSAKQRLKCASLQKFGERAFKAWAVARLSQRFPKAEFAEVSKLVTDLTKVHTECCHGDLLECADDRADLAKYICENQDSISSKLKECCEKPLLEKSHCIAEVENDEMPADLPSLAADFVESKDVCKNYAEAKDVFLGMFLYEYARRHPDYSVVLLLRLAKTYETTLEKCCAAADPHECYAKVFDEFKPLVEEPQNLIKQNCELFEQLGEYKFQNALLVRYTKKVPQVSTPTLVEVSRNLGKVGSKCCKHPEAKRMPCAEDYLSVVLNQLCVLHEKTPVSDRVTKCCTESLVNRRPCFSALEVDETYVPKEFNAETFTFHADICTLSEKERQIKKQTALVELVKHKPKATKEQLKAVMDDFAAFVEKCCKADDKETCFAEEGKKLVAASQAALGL

For “Cyclo(C(S-X)RIHyPHyPR(S-X)CFPDDF) [SFTI-G7]”, the “appearance in water (turbidity)” value [1] was “slightly turbid”.

In the case of “H2N—K(3-aminobiphenyl propionic acid)F—OH [control peptide]”, the “binding to HER2 protein (in words)” value [2] is reported as “does not bind to HER2 protein; also recorded: no binding was observed”.

In the case of `CC[C@H](C)[C@@H]1NC(=O)[C@H](CCCNC(=N)N)NC(=O)C[C@@H](c2cccc3ccccc23)NC(=O)[C@@H]2CSSC[C@H](NC(=O)C[C@@H](c3cccc4ccccc34)NC(=O)[C@H](CCCNC(=N)N)NC(=O)[C@@H]3CCCN3C(=O)[C@@H]3CCCN3C1=O)C(=O)N[C@@H](Cc1ccccc1)C(=O)N1CCC[C@H]1C(=O)N[C@@H](CC(=O)O)C(=O)N[C@@H](CC(=O)O)C(=O)N[C@@H](Cc1ccccc1)C(=O)N2` [SFTI-G5, Cyclo(C(S-X)RIPPR(S-X)CFPDDF)], the IC50 [3] is reported as 4.22 µM, the “synergistic effect with erlotinib (isobologram)” value ([4]; Calu-3, combination with erlotinib) is reported as “synergistic” and the “synergistic effect with lapatinib (isobologram)” value ([4]; Calu-3, combination with lapatinib) is reported as “synergistic”. The IC50 [5] was 0.073 µM, the “antiproliferative activity, times less against HER2-ve cell lines” value ([6]; as printed: less than its activity against HER2-ve cell lines) was about 300 times and the IC50 ([6]; read-out: antiproliferative activity IC50, MCF-7) was 25 µM. For the same molecule, the IC50 [7] was 0.28 µM, the “synergistic effect with erlotinib (isobologram)” value ([8]; NCI-H1975, combination with erlotinib) was “synergistic” and the “synergistic effect with lapatinib (isobologram)” value ([8]; NCI-H1975, combination with lapatinib) was “synergistic”. The “inhibition of HER2 phosphorylation” value [9] was “inhibits phosphorylation of HER2 kinase; also recorded: reduces HER2 phosphorylation”, the “antiproliferative activity, times less in noncancerous breast cell lines compared to Calu-3” value ([10]; MCF-10A vs Calu-3) was “more than 500 times” and the IC50 [10] was 40 µM. For the same molecule, the “histological analysis of lung tissue” value [11] was “reduced pathological features associated with tumor development”, the “tumor growth (bioluminescence, total photon flux/sec)” value ([11]; weeks 4 and 5, vs control) was “reduced growth of tumors; also recorded: tumor growth was reduced compared to the control group; also recorded: reduction in the luminescence intensity of tumors” and the “body weight change of mice” value ([11]; during the study) was “No changes in body weight were observed”. The “thermal stability, mass spectrometry” value [12] was “stable up to 80 C; also recorded: thermally stable”, the stability in trypsin (trypsin) was “stable in trypsin assay” and the “thermal stability, CD spectra” value [13] was “stable from 25 C to 85 C; also recorded: more stable than compound 18; also recorded: no significance difference in the CD spectra”. For the same molecule, the “synergistic effect with erlotinib (isobologram)” value ([14]; BT-474, combination with erlotinib) was “synergistic”, the “synergistic effect with lapatinib (isobologram)” value ([14]; BT-474, combination with lapatinib) was “synergistic” and the “time of stability in human serum” value ([15]; 2 mg/mL in human serum, HPLC) was “up to 50 h”. For the same molecule, the remaining at 50 h, 2 mg/mL ([15]; human, human serum, up to 50 h, read-out: intact peptide in human serum) was about 60% and the “appearance in water (turbidity)” value [1] was “slightly turbid”.

With `N=C(N)NCCC[C@@H]1NC(=O)[C@H]2CCCN2C(=O)[C@@H]2CCCN2C(=O)[C@H](CCCNC(=N)N)NC(=O)C[C@H](c2cccc3ccccc23)NC(=O)[C@H](Cc2ccccc2)NC(=O)[C@H](CC(=O)O)NC(=O)[C@H](CC(=O)O)NC(=O)[C@H](Cc2ccccc2)NC(=O)C[C@H](c2cccc3ccccc23)NC1=O` [compound 18, reference compound] (cyclo(P[dP]R[βAla(3R-(1-naphthyl))]FDDF[βAla(3R-(1-naphthyl))]R)) the IC50 [10] was 40 µM and the solubility [1] was under 500 µg/mL.

B1: SFTI-G5 (peptide)
peptide: cyclo(C[βAla(3S-(1-naphthyl))]RIPPR[βAla(3S-(1-naphthyl))]CFPDDF)
modifications: disulfide 1-9
notes: also called grafted peptide; grafted SFTI peptide
For B1, the Kd [16] was 56.9 µM and 56 µM.
